Results as given in ChEMBL document CHEMBL1201862, “PubChem BioAssay data set” (2004).
Activity calls are given as the source filed them.

Assays:
[1] = target: T1, Aryl hydrocarbon receptor (Homo sapiens, UniProt P35869); conditions: Potency;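 note: confirmatory quantitative high-throughput screen measuring activation of the AhR signaling pathway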
T1 sequence (P35869 whole entry): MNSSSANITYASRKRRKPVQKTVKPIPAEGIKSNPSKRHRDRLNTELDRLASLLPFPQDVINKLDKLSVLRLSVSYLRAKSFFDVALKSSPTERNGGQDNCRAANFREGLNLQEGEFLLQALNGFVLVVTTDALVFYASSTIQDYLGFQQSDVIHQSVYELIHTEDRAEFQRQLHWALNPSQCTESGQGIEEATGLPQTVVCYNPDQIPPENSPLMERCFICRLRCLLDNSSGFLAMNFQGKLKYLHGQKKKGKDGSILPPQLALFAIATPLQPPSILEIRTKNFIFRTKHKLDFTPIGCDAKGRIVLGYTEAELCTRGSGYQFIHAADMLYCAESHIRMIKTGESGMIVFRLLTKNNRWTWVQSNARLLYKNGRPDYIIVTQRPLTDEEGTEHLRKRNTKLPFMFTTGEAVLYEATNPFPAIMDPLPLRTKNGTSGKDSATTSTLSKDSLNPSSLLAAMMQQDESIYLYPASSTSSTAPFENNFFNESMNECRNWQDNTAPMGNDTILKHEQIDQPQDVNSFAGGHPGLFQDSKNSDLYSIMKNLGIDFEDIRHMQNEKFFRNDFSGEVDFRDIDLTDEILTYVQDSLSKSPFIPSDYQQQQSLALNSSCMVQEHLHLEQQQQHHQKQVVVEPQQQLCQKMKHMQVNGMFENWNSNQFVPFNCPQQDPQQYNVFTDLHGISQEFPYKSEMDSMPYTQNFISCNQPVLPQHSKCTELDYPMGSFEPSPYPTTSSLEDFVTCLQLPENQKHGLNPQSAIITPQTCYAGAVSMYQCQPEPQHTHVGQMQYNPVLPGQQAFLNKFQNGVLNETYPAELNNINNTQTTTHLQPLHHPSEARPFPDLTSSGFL

[2] = target: Voltage-gated inwardly rectifying potassium channel KCNH2 (Homo sapiens, UniProt Q12809); conditions: Potency;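 note: confirmatory quantitative high-throughput screen measuring inhibition of hERG channel activity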
[3] = target: Fructose-bisphosphate aldolase (Mycobacterium tuberculosis, UniProt P9WQA3); assay: Fluorescence-based biochemical high throughput dose response assay for inhibitors of the fructose-bisphosphate aldolase (FBA) of M. tuberculosis.; format: functional
HeLa = assay: viability loss in HeLa cells – cell-based, ATP luminescence, cherry-pick samples, cytotoxicity control, dose response (AID 687004); format: functional; conditions: Homo sapiens
Beta Lactamase = Beta Lactamase (Pseudomonas aeruginosa, UniProt Q932Y6); assay: BLA reporter interference, concentration series – BLA reporter cells, FRET fluorescence, artefact control for TLR9-MyD88 binding inhibitor project, dose response (AID 588341); format: cell-based;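 note: cell based assay in CHO-K1 cells stably expressing beta-lactamase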
[4] = Luminescence Cell-Based Dose Retest to Confirm Inhibitors of Cancer Stem Cells. [Related pubchem assays (depositor defined):AID2717, AID2721]; format: functional; conditions: Homo sapiens
CHO = CHO cell viability loss, potency – luminescence, cytotoxicity control for TLR9-MyD88 binding inhibitor project, dose response (AID 588339); format: functional, cell-based, hamster; conditions: Cricetulus griseus;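 note: CHO cells stably coexpressing TLR9 and MyD88 fusions from primary screen; compound exposure lasted 48 hours before viability readout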
[5] = viability loss in HEK293T cells – cell-based, cherry-picks, cytotoxicity control for HIV Vif inhibitor project, dose response (AID 652208); format: functional
[6] = target: Hepatocyte nuclear factor 4-alpha (Homo sapiens, UniProt P41235); format: functional, cell-based;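 note: biochemical luminescence-based dose-response counterscreen measuring inhibition of HNF4 dimerization, run alongside a screen for blockers of ABHD5–perilipin-5 interaction; split luciferase complementation of HNF4 fusion proteins in cell lysate measuring dimerization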
Beta-galactosidase = Beta-galactosidase (Escherichia coli, UniProt Q8VNN2); assay: Dose response counterscreen for EBI2 assay utilizing the enzyme, b-galactosidase.; format: functional
Sequence of Beta-galactosidase (Q8VNN2 whole entry): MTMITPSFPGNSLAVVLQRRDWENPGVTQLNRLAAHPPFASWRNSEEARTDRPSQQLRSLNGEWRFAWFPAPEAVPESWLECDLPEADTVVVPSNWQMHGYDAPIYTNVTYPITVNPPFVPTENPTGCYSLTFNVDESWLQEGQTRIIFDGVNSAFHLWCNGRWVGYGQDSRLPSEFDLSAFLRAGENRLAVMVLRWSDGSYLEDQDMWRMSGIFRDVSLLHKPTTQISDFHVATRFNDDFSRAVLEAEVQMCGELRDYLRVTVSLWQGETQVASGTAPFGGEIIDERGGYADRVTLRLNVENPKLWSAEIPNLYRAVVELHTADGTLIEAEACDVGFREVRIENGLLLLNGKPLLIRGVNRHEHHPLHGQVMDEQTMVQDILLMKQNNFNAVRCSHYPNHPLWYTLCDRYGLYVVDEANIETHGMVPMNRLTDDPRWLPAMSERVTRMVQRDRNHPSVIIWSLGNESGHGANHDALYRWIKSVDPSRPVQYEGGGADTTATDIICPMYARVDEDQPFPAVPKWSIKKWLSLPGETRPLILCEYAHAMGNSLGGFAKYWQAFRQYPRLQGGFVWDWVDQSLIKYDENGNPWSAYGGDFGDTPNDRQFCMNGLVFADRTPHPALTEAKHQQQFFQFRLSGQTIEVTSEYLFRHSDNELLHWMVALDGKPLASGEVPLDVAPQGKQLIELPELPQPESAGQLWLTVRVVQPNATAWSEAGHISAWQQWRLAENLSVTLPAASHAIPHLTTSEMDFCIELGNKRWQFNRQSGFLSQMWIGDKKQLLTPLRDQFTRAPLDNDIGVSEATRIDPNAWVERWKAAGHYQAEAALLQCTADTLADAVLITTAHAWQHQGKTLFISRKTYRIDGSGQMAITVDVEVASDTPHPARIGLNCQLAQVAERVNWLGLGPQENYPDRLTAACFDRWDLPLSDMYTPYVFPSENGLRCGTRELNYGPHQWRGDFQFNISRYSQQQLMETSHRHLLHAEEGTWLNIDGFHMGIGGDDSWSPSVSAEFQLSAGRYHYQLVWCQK

Sequence of Hepatocyte nuclear factor 4-alpha (P41235 whole entry, the tested form may be a part): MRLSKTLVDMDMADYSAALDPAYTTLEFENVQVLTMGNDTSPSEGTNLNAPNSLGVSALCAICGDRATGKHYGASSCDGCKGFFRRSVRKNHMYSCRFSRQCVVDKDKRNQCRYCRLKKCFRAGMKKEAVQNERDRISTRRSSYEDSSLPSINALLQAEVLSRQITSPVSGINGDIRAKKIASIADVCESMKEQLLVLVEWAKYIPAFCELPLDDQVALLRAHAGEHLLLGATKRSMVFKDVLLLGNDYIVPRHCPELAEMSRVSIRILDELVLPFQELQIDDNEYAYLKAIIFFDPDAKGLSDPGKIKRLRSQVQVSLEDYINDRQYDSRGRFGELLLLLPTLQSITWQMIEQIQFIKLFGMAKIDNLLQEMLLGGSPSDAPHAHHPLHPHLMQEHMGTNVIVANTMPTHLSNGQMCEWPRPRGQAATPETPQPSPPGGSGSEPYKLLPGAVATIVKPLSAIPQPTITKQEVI
Sequence of Fructose-bisphosphate aldolase (P9WQA3 whole entry): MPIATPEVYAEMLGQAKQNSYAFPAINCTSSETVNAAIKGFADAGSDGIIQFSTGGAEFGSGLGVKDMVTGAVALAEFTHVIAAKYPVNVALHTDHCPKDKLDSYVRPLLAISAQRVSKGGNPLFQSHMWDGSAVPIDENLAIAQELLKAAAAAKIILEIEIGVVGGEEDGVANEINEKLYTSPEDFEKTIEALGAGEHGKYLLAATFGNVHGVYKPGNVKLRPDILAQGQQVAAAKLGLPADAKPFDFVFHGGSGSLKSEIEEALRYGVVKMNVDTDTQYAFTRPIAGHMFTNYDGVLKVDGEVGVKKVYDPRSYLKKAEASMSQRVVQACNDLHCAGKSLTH
Sequence of Beta Lactamase (Q932Y6 whole entry): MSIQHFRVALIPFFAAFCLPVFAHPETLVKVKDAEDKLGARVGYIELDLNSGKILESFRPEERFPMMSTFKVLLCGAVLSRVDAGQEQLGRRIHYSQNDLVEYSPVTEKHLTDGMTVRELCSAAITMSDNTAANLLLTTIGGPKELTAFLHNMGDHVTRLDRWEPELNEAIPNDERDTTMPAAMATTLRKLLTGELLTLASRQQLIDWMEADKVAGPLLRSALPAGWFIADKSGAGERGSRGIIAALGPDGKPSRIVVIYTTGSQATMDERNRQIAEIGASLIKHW
Sequence of Voltage-gated inwardly rectifying potassium channel KCNH2 (Q12809 whole entry): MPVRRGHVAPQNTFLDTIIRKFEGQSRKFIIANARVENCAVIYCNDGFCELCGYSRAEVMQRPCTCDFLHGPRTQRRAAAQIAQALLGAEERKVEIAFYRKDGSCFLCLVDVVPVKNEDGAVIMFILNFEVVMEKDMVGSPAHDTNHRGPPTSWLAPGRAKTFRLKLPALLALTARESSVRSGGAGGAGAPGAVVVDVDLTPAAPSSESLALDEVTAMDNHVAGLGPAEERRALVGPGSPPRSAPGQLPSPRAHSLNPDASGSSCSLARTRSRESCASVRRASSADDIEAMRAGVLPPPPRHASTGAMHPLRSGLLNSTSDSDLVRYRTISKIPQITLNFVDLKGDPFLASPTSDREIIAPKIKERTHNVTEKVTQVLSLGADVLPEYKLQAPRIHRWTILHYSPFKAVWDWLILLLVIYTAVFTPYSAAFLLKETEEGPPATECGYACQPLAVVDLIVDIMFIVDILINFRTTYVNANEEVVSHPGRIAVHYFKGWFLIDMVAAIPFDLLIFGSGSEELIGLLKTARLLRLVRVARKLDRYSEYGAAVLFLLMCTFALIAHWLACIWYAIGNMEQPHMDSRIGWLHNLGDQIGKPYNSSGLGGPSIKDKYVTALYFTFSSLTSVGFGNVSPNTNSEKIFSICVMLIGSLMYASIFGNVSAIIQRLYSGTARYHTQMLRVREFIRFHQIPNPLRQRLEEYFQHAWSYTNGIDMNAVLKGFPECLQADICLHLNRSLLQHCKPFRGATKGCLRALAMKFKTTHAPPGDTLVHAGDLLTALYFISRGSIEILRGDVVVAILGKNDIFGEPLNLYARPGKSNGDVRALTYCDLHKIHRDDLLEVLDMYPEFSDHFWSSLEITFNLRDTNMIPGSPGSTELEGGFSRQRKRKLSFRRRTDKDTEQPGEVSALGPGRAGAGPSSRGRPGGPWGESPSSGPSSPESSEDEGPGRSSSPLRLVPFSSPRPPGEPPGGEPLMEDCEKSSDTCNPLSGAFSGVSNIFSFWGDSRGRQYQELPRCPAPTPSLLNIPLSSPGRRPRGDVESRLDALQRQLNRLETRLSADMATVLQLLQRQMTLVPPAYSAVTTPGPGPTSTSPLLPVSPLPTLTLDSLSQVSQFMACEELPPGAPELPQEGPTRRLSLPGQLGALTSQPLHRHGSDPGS

In the case of `[O-]/[N+](=N/c1ccccc1)c1ccccc1`, the AC50 [1] was 56.2 µM (inconclusive) and the AC50 [2] was 50.1 µM (inconclusive).
For `Cc1ccc(-c2cc(C(=O)O)c3cc(Br)ccc3n2)s1`, the IC50 [3] was > 1.11 µM (active).
In the case of `CC(C)NC(=O)Nc1ccc2c(c1)C(=O)N([C@@H](C)CO)C[C@H](C)[C@@H](CN(C)Cc1ccc3c(c1)OCO3)OCCCC[C@@H](C)O2`, the AC50 (HeLa) was 19.5 µM (active).
For `COc1ccc(-c2nc3cnccn3c2NC2CCCCC2)cc1-c1cccc(Cl)c1`, the IC50 (Beta Lactamase) was 6.78 µM (active), the AC50 [4] was 4.23 µM (active) and the IC50 (CHO) was 25.4 µM (inactive). The AC50 [5] was 39.2 µM (active).
In the case of `COc1ccc(C(C(=O)Nc2ccc3c(c2)OCCO3)n2c(=O)c(-c3ccco3)nc3ccccc32)cc1` (stereo unspecified), the IC50 [6] was 12.5 µM (inactive).
For `CCc1cc2cc(C(=O)N3CCN(Cc4ccccc4)CC3)sc2s1`, the IC50 (Beta-galactosidase) was > 80 µM (inactive).
For `CCCCCCC=C1CCC(CN2CCCC2)C1=O` (stereo unspecified), the IC50 [6] was 2.25 µM (active).
